Format in all cases: functional, cell-based
Experiment [1] concerns HeLa. The experiment in a line: Cytotoxicity against human HeLa cells after 96 hrs by SRB assay.
Experiment [2] deals with A549. The experiment in a line: Cytotoxicity against human A549 cells after 96 hrs by SRB assay. The conditions noted are these: A549, 96 h.
For experiment [3], the system named is A2780. The experiment in a line: Cytotoxicity against human A2780 cells after 96 hrs by SRB assay. The conditions noted are these: A2780, 96 h. A general note: Sulforhodamine B stains cellular protein and so reports cell mass.
Experiment [4] is described as follows: Cytotoxicity against human 518A2 cells after 96 hrs by SRB assay. The conditions noted are these: 518A2, 96 h.
Experiment [5] relates to HT-29. Description: Cytotoxicity against human HT-29 cells after 96 hrs by SRB assay. Particulars: HT-29, 96 h.
The subject of experiment [6] is MCF7. The experiment in a line: Cytotoxicity against human MCF7 cells after 96 hrs by SRB assay. The conditions noted are these: MCF7, 96 h.

What is called EC50 is the midpoint of the concentration-response curve. A high value points to lower potency in that assay.

As to `C=C(C)[C@@H]1CC[C@]2(CO)CC[C@]3(C)[C@H](CC[C@@H]4[C@@]5(C)CC[C@H](OC(C)=O)C(C)(C)[C@@H]5CC[C@]43C)[C@@H]12`, the EC50 in experiment [1] was more than 30 µM; in experiment [2], more than 30 µM; in experiment [3], 28.5 µM; in experiment [4], more than 30 µM; in experiment [5], more than 30 µM; in experiment [6] it was 20.2 µM.

Consider `C=C(C)[C@@H]1CC[C@]2(COC(=O)NCCCCCC)CC[C@]3(C)[C@H](CC[C@@H]4[C@@]5(C)CC[C@H](O)C(C)(C)[C@@H]5CC[C@]43C)[C@@H]12`, for which the EC50 amounted to 7.6 µM in experiment [3] and 5.6 µM in experiment [4].

For `C=C(C)[C@@H]1CC[C@]2(COC(=O)NCC)CC[C@]3(C)[C@H](CC[C@@H]4[C@@]5(C)CC[C@H](OC(=O)C(N)=O)C(C)(C)[C@@H]5CC[C@]43C)[C@@H]12`, the concentration for a half-maximal effect (EC50) stood at 14.1 µM in experiment [1]; 13.7 µM in experiment [2]; 10 µM in experiment [3]; 11.4 µM in experiment [4]; 15.3 µM in experiment [5]; 11.2 µM in experiment [6].

Take `C=C(C)[C@@H]1CC[C@]2(COC(=O)NCCCC)CC[C@]3(C)[C@H](CC[C@@H]4[C@@]5(C)CC[C@H](OC(=O)C(N)=O)C(C)(C)[C@@H]5CC[C@]43C)[C@@H]12`: the EC50 in experiment [1] is 11.2 µM; in experiment [2] it was 9.1 µM; in experiment [3] it was 6.4 µM; in experiment [4], 7.9 µM; in experiment [5], 10.1 µM; in experiment [6], 10 µM.

As for `C=C(C)[C@@H]1CC[C@]2(COC(=O)NCCCCCC)CC[C@]3(C)[C@H](CC[C@@H]4[C@@]5(C)CC[C@H](OC(=O)C(N)=O)C(C)(C)[C@@H]5CC[C@]43C)[C@@H]12`, the EC50 in experiment [1] stood at 10.1 µM; in experiment [2] it was 7.4 µM; in experiment [3], 2 µM; in experiment [4], 6.5 µM; in experiment [5], 7.3 µM; in experiment [6], 5.6 µM.

Consider `C=C(C)[C@@H]1CC[C@]2(COC(=O)NCCC)CC[C@]3(C)[C@H](CC[C@@H]4[C@@]5(C)CC[C@H](OC(=O)C(N)=O)C(C)(C)[C@@H]5CC[C@]43C)[C@@H]12`, for which the EC50 in experiment [1] turned out to be 12.8 µM; in experiment [2] it was 10.5 µM; in experiment [3], 7 µM; in experiment [4], 9.9 µM; in experiment [5], 12.8 µM; in experiment [6], 12.5 µM.

As to `C=C(C)[C@@H]1CC[C@]2(COC(=O)Nc3ccccc3)CC[C@]3(C)[C@H](CC[C@@H]4[C@@]5(C)CC[C@H](OC(=O)C(N)=O)C(C)(C)[C@@H]5CC[C@]43C)[C@@H]12`, the EC50 in experiment [1] was 10.5 µM; in experiment [2], 20.4 µM; in experiment [3], 17.3 µM; in experiment [4], 15.3 µM; in experiment [5] it was 21.4 µM; in experiment [6], 17.6 µM.

`C=C(C)[C@@H]1CC[C@]2(COC(C)=O)CC[C@]3(C)[C@H](CC[C@@H]4[C@@]5(C)CC[C@H](OC(C)=O)C(C)(C)[C@@H]5CC[C@]43C)[C@@H]12` [BETULIN DIACETATE]: the EC50 in experiment [1] was more than 30 µM; in experiment [2] it was 21.5 µM; in experiment [3] it was 20.3 µM; in experiment [5] it was 25.7 µM.

With `C=C(C)[C@@H]1CC[C@]2(C(=O)O)CC[C@]3(C)[C@H](CC[C@@H]4[C@@]5(C)CC[C@H](O)C(C)(C)[C@@H]5CC[C@]43C)[C@@H]12` [BETULINIC ACID], in experiment [1], the EC50 was found to be 8.8 µM.

Regarding `C=C(C)[C@@H]1CC[C@]2(CO)CC[C@]3(C)[C@H](CC[C@@H]4[C@@]5(C)CC[C@H](O)C(C)(C)[C@@H]5CC[C@]43C)[C@@H]12` [BETULIN], the EC50 in experiment [1] and in experiment [5] was more than 30 µM each time.

For the origin of these results see ChEMBL document CHEMBL3797123, “Amino(oxo)acetate moiety: A new functional group to improve the cytotoxicity of betulin derived carbamates” (Bioorg Med Chem Lett, 2016).
